Measured values reported in patent publication US20240165150A1, “COMBINATION FOR TREATMENT OF THROMBOINFLAMMATION” (TX MEDIC AB, priority 2021, published 2024).

Experiments:
Assay type in all cases: cell-based
[1] = system: human whole blood; assay: Hematology analysis (cell counts) in IBMIR blood loop system; conditions: WI-38 cells 1 × 10^5/2 ml, 1 hour, IBsolvMIR 0.2 mg/ml, heparin 0, 0.2 or 0.5 U/ml
Experimental: (§1) Materials and Methods Dextran sulfate (IBsolvMIR®, Tikomed AB, Viken, Sweden, WO 2016/076780), heparin (Heparin LEO®, LEO Pharma, cat. No. 585679) and WI-38 cells (American Type Culture Collection (ATCC)) were administered to blood loops as shown in Table 1. Vehicle was an aqueous 0.9% NaCl solution. Each loop contained in total 2 ml of freshly taken human whole blood from three blood donors. Reagents were added to the loops according to Table 1 and the loops were set to rotate at 37° C. Blood samples were taken at the zero, 15 min, 1 hour and 4 hour time points.
Blood samples were extracted from loops at the zero and 1 hour time points and platelets, red blood cells and white blood cells were automatically counted using a Sysmex XN-L 350 Hematology Analyzer.

[2] = system: human whole blood; assay: Coagulation (blood clot size) and hemolysis in IBMIR blood loop system
Experimental: as §1
Clot scale: 1=Small clot observed (<2 mm), 2=Medium-sized clot observed (2-5 mm), 3=Large clot observed (>5 mm), * Clot removed from loop (not noted at 4 h when all blood was removed from loop), n.s.=no sample. Hemolysis: +=hemolysis observed in blood loop.

[3] = system: human whole blood; assay: Cytokine analysis by electrochemiluminescence in blood loop system
Experimental: as §1
Blood was extracted from loops at the zero and 4 hour time points and cytokines were analyzed by electrochemiluminescence (ECL) in multiplex mode using MESO QuickPlex SQ 120 (Mesoscale Discovery).

[4] = system: human whole blood; assay: Flow cytometry analysis of blood from blood loops; conditions: 1 hour
Experimental: as §1
Fresh blood was collected and immediately mixed with ethylenediaminetetraacetic acid (EDTA) (zero time point samples) or added to loops followed by sampling and mixing with EDTA at the 1 hour time point. Data was analyzed using flow cytometry.

[5] = system: human whole blood; assay: Complement split products C3a and C5a by ELISA in blood loop system
Experimental: as §1
Complement analysis Complement split product C3a and C5a concentrations were measured by ELISA according to the manufacturer's instructions (RayBio® Human C3a and C5a ELISA Kit for serum, plasma, and cell culture supernatants by RayBiotech) at the zero, 15 min and 1 hour time points.

[6] = WI-38-treated loops, three donors
[7] = agent alone, WI-38 cells, listed as Dextran sulfate
[8] = vs corresponding WI-38 treated without IBsolvMIR
[9] = vehicle at 0.5 U/ml heparin, donors D2 and D3, 4 hour
[10] = heparin 0.2 or 0.5 U/ml combined with IBsolvMIR 0.2 mg/ml, WI-38 cells

## Dextran sulfate [IBsolvMIR®]
[1]
  WBC counts (WI-38 induced decrease): completely rescued the WBC decrease
[1]; listed as dextran sulfate
  WBC counts (WI-38 induced decrease): capable of restoring WBC counts
[2]; IBsolvMIR alone loops, all donors, 15 min to 4 hours
  Clotting, loops without WI-38 cells: No clotting was observed
[2]; [6]
  Clotting at 15 minutes: no clotting was observed
  Clotting at one hour: medium-sized clots were observed in two WI-38+IBsolvMIR® loops
[3]; 4 hour time point
  IL-6 cytokine release: ambiguous
[3]; IBsolvMIR alone groups vs corresponding vehicle, 4 hour
  MCP-1 levels: higher than corresponding vehicle
[3]; WI-38 cells with IBsolvMIR vs corresponding WI-38 alone group, 4 hour
  MCP-1 levels: slightly increased levels of MCP-1
[3]; vehicle and WI-38 cell-induced, 4 hour
  IL-8 release: clear IBsolvMIR® dependent reduction
[4]; WI-38 cells
  Activation of granulocytes (CD66b+): overall decreased activation profile
  Activation of monocytes (CD14+): overall decreased activation profile
  Aggregation of platelets (decrease in proportion of single platelets): entirely revoked
  B cell count (WI-38 dependent decrease): entirely reversed up to vehicle level
  Frequency of granulocytes: increased frequency
  Frequency of monocytes: increased frequency
[4]; WI-38 treated groups with vs without IBsolvMIR
  TF positive cell counts: about ten-fold
[4]; agent alone, WI-38 cells
  C5b-9 formation on platelets (proportion of C5b-9 positive platelets): partly reverted
  Platelet binding to WI-38 cells (cell transplant): partly reverted
  Proportion of platelets bound to granulocytes: capable of reducing
  Proportion of platelets bound to monocytes: capable of reducing
[4]; [7]
  C5b-9 formation on platelets (proportion of C5b-9 positive platelets): capable of reducing
  Platelet binding to WI-38 cells (cell transplant): capable of reducing
[4]; vs WI-38 alone
  Complement activation (C5b-9) on TF positive cells: lower
[4]; [8]
  Frequency of apoptotic (annexin +) TF+ cells: lower
  Frequency of dead (annexin + and/or viability dye +) TF+ cells: lower
[5]; 15 min time point
  C3a increase in WI-38 treated groups: entirely blocked
[5]; 1 hour time point
  C5a vs corresponding treatment without IBsolvMIR: lower in almost every donor in every group
[5]; no heparin, 0.2 and 0.5 U/ml heparin, with and without WI-38 cells, 15 min and 1 hour
  C3a vs corresponding treatment without IBsolvMIR: decreased C3a

## heparin [reference compound]
[1]
  WBC counts (WI-38 induced decrease): does not affect WBC counts
[3]; [9]
  IL-6 response: > 100 fold
  TNF-α release: dramatic elevated vehicle response
[4]; agent alone, WI-38 cells
  C5b-9 formation on platelets (proportion of C5b-9 positive platelets): did not have any effects
  Platelet binding to WI-38 cells (cell transplant): did not have any effect at all
  Proportion of platelets bound to granulocytes: did not have any effect at all
  Proportion of platelets bound to monocytes: did not have any effect at all
[4]; [10]
  C5b-9 formation on platelets (proportion of C5b-9 positive platelets): clear concentration-dependent effect
  Platelet binding to WI-38 cells (cell transplant): potentiated the effects of IBsolvMIR®
[4]; heparin 0.2 or 0.5 U/ml combined with IBsolvMIR 0.2 mg/ml, WI-38 cells, listed as Heparin
  C5b-9 formation on platelets (proportion of C5b-9 positive platelets): potentiated the effects of IBsolvMIR®
